ChEMBL document CHEMBL1759873, “Novel thiolactone-isatin hybrids as potential antimalarial and antitubercular agents” (Bioorg Med Chem Lett, 2011)
≈ marks a conversion by molar mass, not a printed value.

How the values were obtained:
[1] = test system: Mycobacterium tuberculosis; assay: Antitubercular activity against Mycobacterium tuberculosis H37Rv at 10 ug/ml by BACTEC radiometric susceptibility assay; assay type: functional
[2] = test system: Mycobacterium tuberculosis; assay: Antitubercular activity against Mycobacterium tuberculosis H37Rv by LORA assay; assay type: functional
Plasmodium falciparum = assay: Antiplasmodial activity against Plasmodium falciparum W2; assay type: functional, organism-based
[3] = Inhibition of Plasmodium falciparum W2 recombinant falcipain-2
[4] = test system: Mycobacterium tuberculosis; assay: Antitubercular activity against Mycobacterium tuberculosis H37Rv by microplate alamar blue assay; assay type: functional
[5] = test system: Mycobacterium tuberculosis; assay: Antitubercular activity against Mycobacterium tuberculosis H37Rv at 1 ug/ml by BACTEC radiometric susceptibility assay; assay type: functional

Structure (SMILES) | inhibition at 10 µg/mL [1] | MIC [2] | IC50 (Plasmodium falciparum) | IC50 [3] | MIC [4] | inhibition at 1 µg/mL [5]
O=C1C(=O)N(CCCCCBr)c2ccccc21 | 34.8% | 44.4 µM (≈ 13.1 µg/mL) | > 20 µM | > 100 µM | 23.2 µM (≈ 6.87 µg/mL) | -22.1%
O=[N+]([O-])c1cn2c(n1)OC[C@@H](OCc1ccc(OC(F)(F)F)cc1)C2 [PRETOMANID] | – | 3.3 µM (≈ 1.19 µg/mL) | – | – | 0.16 µM (≈ 0.0575 µg/mL) | –
CC1=C2OCCCCCCN3C(=O)C(O)(c4ccccc43)C2(C)SC1=O (stereo not given) | 18.5% | – | 11.5 µM | > 100 µM | > 128 µM | 9.4%
O=C1C(=O)N(CCCBr)c2ccccc21 | – | – | > 20 µM | > 100 µM | > 128 µM | –
CC1=C2OCCCCN3C(=O)C(O)(c4cc(Cl)ccc43)C2(C)SC1=O (stereo not given) | 15.3% | – | > 20 µM | > 100 µM | > 128 µM | 13.4%
O=C1C(=O)N(CCCCBr)c2ccc(Br)cc21 | – | 37.7 µM (≈ 13.6 µg/mL) | > 20 µM | > 100 µM | 30.5 µM (≈ 11 µg/mL) | –
CC1=C(OCCCCN2C(=O)C(=O)c3ccccc32)C(C)SC1=O (stereo not given) | 42.6% | – | > 20 µM | > 100 µM | > 128 µM | 33.4%
CC1=C2OCCCCCN3C(=O)C(O)(c4cc(Br)ccc43)C2(C)SC1=O (stereo not given) | -21.1% | – | > 20 µM | 10.1 µM | > 128 µM | -26%
CC1=C2OCCCCCN3C(=O)C(O)(c4ccccc43)C2(C)SC1=O (stereo not given) | 32.6% | – | > 20 µM | > 100 µM | > 128 µM | 21.9%
CC1=C(OCCCCCCN2C(=O)C(=O)c3ccccc32)C(C)SC1=O (stereo not given) | 36.4% | – | 12.3 µM | 32 µM | > 128 µM | 27.7%
CC1=C(OCCN2C(=O)C(=O)c3cc(C)ccc32)C(C)SC1=O (stereo not given) | 4% | – | > 20 µM | > 100 µM | > 128 µM | -12%
O=C1C(=O)N(CCCCCCBr)c2ccccc21 | – | 108 µM (≈ 33.5 µg/mL) | > 20 µM | > 100 µM | 97.6 µM (≈ 30.3 µg/mL) | –
CC1=C(OCCN2C(=O)C(=O)c3cc(F)ccc32)C(C)SC1=O (stereo not given) | 22% | – | > 20 µM | 89.6 µM | > 128 µM | -29%
CC1=C(O)SC(C)C1=O (stereo not given) [THIOLACTONE] | -32.8% | – | > 20 µM | > 100 µM | > 128 µM | -24.5%
CC1=C2OCCCCCN3C(=O)C(O)(c4cc(Cl)ccc43)C2(C)SC1=O (stereo not given) | -15.2% | – | > 20 µM | > 100 µM | > 128 µM | 0%
CC1=C(OCCN2C(=O)C(=O)c3cc(Cl)ccc32)C(C)SC1=O (stereo not given) | 9.9% | 117 µM (≈ 41.2 µg/mL) | > 20 µM | 47.8 µM | 63.7 µM (≈ 22.4 µg/mL) | -2.8%
CC1=C2OCCCCN3C(=O)C(O)(c4cc(F)ccc43)C2(C)SC1=O (stereo not given) | 1.3% | – | > 20 µM | > 100 µM | > 128 µM | 4.9%
C=C/C(C)=C/[C@@]1(C)SC(=O)C(C)=C1O [THIOLACTOMYCIN] | 58.6% | – | > 20 µM | > 100 µM | > 128 µM | -3.8%
O=C1C(=O)N(CCCCBr)c2ccccc21 | – | 28.8 µM (≈ 8.13 µg/mL) | > 20 µM | > 100 µM | 96.5 µM (≈ 27.2 µg/mL) | –
CC1=C(OCCN2C(=O)C(=O)c3ccccc32)C(C)SC1=O (stereo not given) | 34.7% | – | > 20 µM | 40.2 µM | > 128 µM | 31.7%
CC1=C2OCCCCCCN3C(=O)C(O)(c4cc(Cl)ccc43)C2(C)SC1=O (stereo not given) | -20% | – | 7.41 µM | > 100 µM | > 128 µM | -16%
CC1=C(OCCN2C(=O)C(=O)c3cc(I)ccc32)C(C)SC1=O (stereo not given) | 42% | – | > 20 µM | 17.8 µM | > 128 µM | -3.2%
NNC(=O)c1ccncc1 [ISONIAZID] | – | > 128 µM | – | – | 0.37 µM (≈ 0.0507 µg/mL) | –
CC1=C2OCCCCN3C(=O)C(O)(c4cc(C)ccc43)C2(C)SC1=O (stereo not given) | -0.4% | – | > 20 µM | > 100 µM | > 128 µM | -0.6%

Structure (SMILES) | inhibition at 10 µg/mL [1] | MIC [2] | IC50 (Plasmodium falciparum) | IC50 [3] | MIC [4] | inhibition at 1 µg/mL [5]
O=C1C(=O)N(CCCCCCBr)c2ccc(Cl)cc21 | – | 31 µM (≈ 10.7 µg/mL) | – | – | 29.7 µM (≈ 10.2 µg/mL) | –
CC1=C2OCCCCCN3C(=O)C(O)(c4cc(I)ccc43)C2(C)SC1=O (stereo not given) | -40.7% | – | > 20 µM | > 100 µM | > 128 µM | -39.7%
CC1=C(OCCCN2C(=O)C(=O)c3ccccc32)C(C)SC1=O (stereo not given) | 14.9% | – | > 20 µM | > 100 µM | > 128 µM | -18.5%
CC1=C2OCCCCN3C(=O)C(O)(c4cc([N+](=O)[O-])ccc43)C2(C)SC1=O (stereo not given) | -5.1% | – | > 20 µM | 44.5 µM | > 128 µM | -3%
COc1c(N2C[C@@H]3CCCN[C@@H]3C2)c(F)cc2c(=O)c(C(=O)O)cn(C3CC3)c12 [MOXIFLOXACIN] | – | 31.1 µM (≈ 12.5 µg/mL) | – | – | 0.29 µM (≈ 0.116 µg/mL) | –
CC1=C2OCCCCN3C(=O)C(O)(c4cc(I)ccc43)C2(C)SC1=O (stereo not given) | 19.6% | – | > 20 µM | > 100 µM | > 128 µM | 4.9%
O=C1C(=O)N(CCCCBr)c2ccc(F)cc21 | – | 53.3 µM (≈ 16 µg/mL) | > 20 µM | > 100 µM | 123 µM (≈ 36.9 µg/mL) | –
Cc1ccc2c(c1)C(=O)C(=O)N2CCCCBr | – | 53.2 µM (≈ 15.8 µg/mL) | > 20 µM | > 100 µM | 62.7 µM (≈ 18.6 µg/mL) | –
O=C1C(=O)N(CCCCBr)c2ccc([N+](=O)[O-])cc21 | – | – | > 20 µM | > 100 µM | > 128 µM | –
CC1=C2OCCCCN3C(=O)C(O)(c4cc(Br)ccc43)C2(C)SC1=O (stereo not given) | 5.1% | – | > 20 µM | > 100 µM | > 128 µM | -16.2%
CN[C@@H]1[C@H](O[C@H]2[C@H](O[C@H]3[C@H](O)[C@@H](O)[C@H](N=C(N)N)[C@@H](O)[C@@H]3N=C(N)N)O[C@@H](C)[C@]2(O)C=O)O[C@@H](CO)[C@H](O)[C@H]1O [STREPTOMYCIN] | – | – | – | – | 0.43 µM (≈ 0.25 µg/mL) | –
O=C1C(=O)N(CCBr)c2ccccc21 | – | – | > 20 µM | > 100 µM | > 128 µM | –
CO[C@H]1/C=C/O[C@@]2(C)Oc3c(C)c(O)c4c(O)c(c(/C=N/N5CCN(C)CC5)c(O)c4c3C2=O)NC(=O)/C(C)=C\C=C\[C@H](C)[C@H](O)[C@@H](C)[C@@H](O)[C@@H](C)[C@H](OC(C)=O)[C@@H]1C [RIFAMPIN] | – | 2.4 µM (≈ 1.98 µg/mL) | – | – | 0.05 µM (≈ 0.0411 µg/mL) | –
CC1=C2OCCCCCCN3C(=O)C(O)(c4cc(Br)ccc43)C2(C)SC1=O (stereo not given) | -0.5% | – | 6.93 µM | 83.4 µM | > 128 µM | 8.1%
CC1=C2OCCCCCCN3C(=O)C(O)(c4cc(I)ccc43)C2(C)SC1=O (stereo not given) | -40% | – | 6.92 µM | 48.3 µM | > 128 µM | -34%
CC1=C(OCCCCCN2C(=O)C(=O)c3ccccc32)C(C)SC1=O (stereo not given) | 34% | – | 15.3 µM | 58 µM | > 128 µM | 34.9%
O=C1C(=O)N(CCCCBr)c2ccc(I)cc21 | – | 57.1 µM (≈ 23.3 µg/mL) | > 20 µM | > 100 µM | 15.5 µM (≈ 6.32 µg/mL) | –
CC1=C2OCCCCN3C(=O)C(O)(c4ccccc43)C2(C)SC1=O (stereo not given) | 18.1% | – | > 20 µM | > 100 µM | > 128 µM | 17%
CC1=C(OCCN2C(=O)C(=O)c3cc(Br)ccc32)C(C)SC1=O (stereo not given) | – | – | 17.4 µM | 31.7 µM | – | –
CC(C)C[C@H](NC(=O)[C@H]1O[C@@H]1C(=O)O)C(=O)NCCCCN=C(N)N [E-64] | – | – | – | 0.0473 µM | – | –
CC1=C2OCCCCCCN3C(=O)C(O)(c4cc(F)ccc43)C2(C)SC1=O (stereo not given) | -28% | – | 14 µM | > 100 µM | > 128 µM | -35%
O=C1C(=O)N(CCCCCCBr)c2ccc(F)cc21 | – | 31.5 µM (≈ 10.3 µg/mL) | – | – | 62.3 µM (≈ 20.4 µg/mL) | –
O=C1C(=O)N(CCCCBr)c2ccc(Cl)cc21 | – | 30.5 µM (≈ 9.66 µg/mL) | > 20 µM | > 100 µM | 30.5 µM (≈ 9.66 µg/mL) | –
